Results on 1 compound are retold here after EP4417190A1, “CYCLIC PEPTIDES WITH ANTI-AGING EFFICACY” (Lipotrue, S.L., priority 2023, dated 2024).

One may read the viability as the share of living cells, or the viability signal relative to a control.

Molecules are shown by their SMILES. Read-outs that look alike come from different tables or passages of the source.

Data set [1] has as its system ITGB1. In words: RT-qPCR expression of aging-related gene ITGB1 in HDFa. Type of data set: cell-based, human. The conditions noted are these: 0.05 mg/mL, 6 h. Background: Quantitative PCR measures a nucleic acid by following its amplification.
Protocol: (§1) Then, cells were lysed, and RNA was extracted (RNeasy mini kit, Qiagen). Purified RNAs were retro-transcribed (High-capacity cDNA reverse transcription kit, Applied Biosystems). RT-qPCR was performed with the panel of TaqMan assay probes (Thermo Fisher Scientific) using StepOne plus Real time PCR instrument. […] The obtained data were analyzed using the ΔΔCt method, which provides the target gene expression values as fold changes in the treated sample compared with an untreated basal sample. Both samples were normalized with the relative expression of the housekeeping gene GAPDH.
Data set [2] in a line: MTT assay, toxicity on HDFa cells. The data set is classed as cell-based. The conditions noted are these: human, normalized to non-treated cells, read-out: Cell viability. Here is the method: Toxicity of cycled peptides A and B was analyzed on human dermal fibroblasts (HDFa) and adult human epidermal keratinocytes HEKa cells by MTT assay. A stock solution of the peptide was prepared in distilled water at 25 mg/mL. This stock solution was further diluted to obtain the final working concentrations (0.001, 0.005, 0.01, 0.05, 0.1 and 0.5 mg/mL) in the corresponding culture medium. Untreated cells were used as negative control samples (Basal).
Briefly, HEKa and HDFa cells were seeded in 96-well plates at a concentration of 1×10^5 cells/mL in a final volume of 200 µL of medium (20,000 cells/well). HEKa cells were incubated in Dermal Cell Basal Medium supplemented with the Keratinocytes Growth Kit; and HDFa cells were cultured in Medium 106 supplemented with 2% of LSGS. Cells were incubated at 37°C, 5% CO2 and saturated humidity.
After 24 h of incubation, cells were treated with different concentrations of each peptide (0.001, 0.005, 0.01, 0.05, 0.1 and 0.5 mg/mL) in triplicates, for MTT evaluation. After 24 h of treatment with the peptide, medium was completely removed, and 100 µL of 0.5 mg/mL MTT solution in supplemented medium were added to each well and cells were incubated at 37°C for 3 h. After incubating with MTT, the medium of each well was aspirated and 150 µL of DMSO were added in order to solubilise the formazan crystals formed. The plates were placed on a shaker for 5 minutes for complete solubilisation of the crystals and then the absorbance at 570 nm of each well was determined, using the microplate reader Multiskan FC, which is directly proportional to the number of living cells in culture.
Absorbance values were normalized using the data obtained for non-treated cells (control), obtaining the % of viability shown in Tables 1 and 2. Each condition was performed in triplicate (n=3) in 3 independent experiments (N=3).
Concentrations of peptide for which viability is above 80% are considered safe for efficacy testing. On the contrary, concentrations for which viability goes below 80% are considered potentially toxic and are not used for efficacy testing purposes. Table 1: Toxicity of cycled peptides on HDFa cells.

The test system of data set [3] is ITGB1. In words: RT-qPCR expression of aging-related gene ITGB1 in HEKa. Type of data set: cell-based, human. The conditions noted are these: 0.01 mg/mL, 24 h.
Protocol: as §1
The subject of data set [4] is COL3A1, COL5A1, COL6A1, COL7A1, COL1A1 and COL4A1. Kind of data set: qPCR expression of collagen genes in HDFa. The data set is classed as cell-based, human. The conditions noted are these: 6 hours, 0.001 mg/mL (COL3A1, COL5A1, COL6A1, COL7A1) or 0.1 mg/mL (COL1A1, COL4A1), compared with linear form (Figure 6A, 6B). How it is done: HDFa cells were seeded in duplicate (n=2) in 12-well plates at a concentration of 200.000 cells/well in 106 Medium supplemented with 2% LSGS. Then, cells were incubated at 37 °C in a humidified atmosphere with 5% CO2. Next, cells were treated with cycled peptide B at different non-toxic concentrations for 6 or 24 hours. Untreated cells were used as basal control. Cells were then lysed, and replicates were pooled together for RNA extraction using Qiagen RNeasy Mini kit following manufacturer's instructions. Purified RNAs was then quantified by nanodrop, adjusted in concentration and processed for retrotranscription to cDNA using a commercially available kit (High-Capacity cDNA Reverse Transcription kit - Thermofisher Scientific, USA). Resulting cDNA was used to perform a RTqPCR using Taqman technology, and a panel of probes designed to target different type of collagens and their respective matrix metalloproteinases.
The expression of collagen genes in HDFa cells was measured by qPCR.

A further data set relates to FN. Kind of data set: RT-qPCR expression of aging-related gene FN in HEKa. The data set is classed as cell-based, human. The conditions noted are these: 0.01 mg/mL, 24 h.
Another data set has as its system Caspase 3 (CASP3). Kind of data set: Caspase 3 activity under BFA-induced endoplasmic reticulum stress in HEKa (Caspase-Glo 3/7). Type of data set: cell-based, human. The note with it: BFA-induced ER stress, 24 h, vs BFA-treated cells (Figure 5). Here is the method: Caspase 3 (CASP3) is a protein member of the cysteine-aspartic acid protease family. Sequential activation of caspases plays a central role in the execution-phase of cell apoptosis. It was evaluated the effect of the cycled peptide B on the caspase 3 activity in human epidermal keratinocytes from adult (HEKa) subjected to endoplasmic reticulum (ER) stress.
HEKa cells were seeded in a black 96-well plate at a density of 18.000 cell/well in Dermal Cell Basal Medium (DCBM) and incubated at 37 °C in a humidified atmosphere with 5% CO2. After 24 h of incubation, cells were treated with 0.15 µg/mL BFA alone or in the presence of 0.005 mg/mL of the cycled peptide B and returned to the incubator for 24 h more. Untreated cells (Basal) were used as negative control samples. 24 hours after treatment, caspase 3 activity was evaluated using Caspase-Glo® 3/7 Assay System, following manufacturer instructions.
Each condition was performed at least in triplicates (n=3) in three independent experiments (N=3). For all data, mean values of relative fluorescence units (RFU) of the different experiments and SEM values are shown. All data was normalized as follows: % vs BFA = (RFU treated cells)/(RFU BFA treated cells) × 100 [formula]
Statistical data analysis was performed using Student t-test by comparison of % activity from test substance vs BFA-treated cells, *p<0.05, **p<0.01, ***p<0.001.

Another data set has as its system ITGA5. Kind of data set: RT-qPCR expression of aging-related gene ITGA5 in HDFa. Type of data set: cell-based, human. The conditions noted are these: 0.05 mg/mL, 6 h.
The test system of a further data set is TGFBR3. Kind of data set: RT-qPCR expression of aging-related gene TGFBR3 in HDFa. Type of data set: cell-based, human. The note with it: 0.05 mg/mL, 6 h.
The subject of another data set is TGFβ3. In words: qPCR TGFβ3 expression in HDF treated with conditioned media from peptide-treated keratinocytes. The data set is classed as cell-based, human. Here is the method: For TGFβ3 gene expression assessment, HEKa cells were seeded in 24-well plate at a density of […] and incubated at 37 °C in a humidified atmosphere with 5% CO2. Next day, cell culture media was replaced by fresh media containing 0.0025 or 0.01 mg/mL of cycled peptide B. In parallel, HDF cells were seeded on culture plates with or without coverslips (for immunofluorescence or qPCR, respectively) and incubated for 24 h.
Conditioned media from HEKa cells after 48 hours of treatment was then transferred to HDF culture plates. Cells were maintained in culture for additional 24h (for qPCR) or for 4 days (for collagen I immunostaining).
For qPCR, cells were lysed, RNA extracted, and gene expression for TGFβ3 target was obtained as indicated in the previous examples.

Protocol for FN: as §1
Protocol for ITGA5: as §1
Protocol for TGFBR3: as §1

`CC(C)C[C@@H]1NC(=O)[C@H](C)NC(=O)[C@H](Cc2c[nH]cn2)NC(=O)[C@H](Cc2c[nH]c3ccccc23)NC(=O)[C@H](Cc2ccccc2)NC(=O)[C@H](CCCNC(=N)N)NC1=O` [Peptide B, cyclo-Phe-Trp- His- Ala-Leu-Arg]: the “Fold change vs. Basal” value with ITGB1 [1] stood at 1.66; in the data set with ITGB1 [3], 1.65; in the data set with FN, 1.58; with ITGA5, 1.31; in the data set with TGFBR3, 1.74. The Mean normalized expression worked out at 1.02E+00 with ITGB1 [1] (normalized to GAPDH); 7.16E-01 in the data set with ITGB1 [3] (normalized to GAPDH); 3.28E-01 with FN (normalized to GAPDH); 2.57E-01 in the data set on ITGA5 (normalized to GAPDH); 8.00E-03 with TGFBR3 (normalized to GAPDH). In addition, the viability at 24 h is 100% in data set [2] (0.001 mg/mL peptide); 99.8% in [2] (0.005 mg/mL peptide); 92.9% in data set [2] (0.01 mg/mL peptide); 91.9% in data set [2] (0.05 mg/mL peptide); 88.2% in data set [2] (0.1 mg/mL peptide); 73.7% in [2] (0.5 mg/mL peptide). Further, the “expression of collagen genes” value in data set [4] is on record as “improves the induction of collagen-related genes”. In addition, the “caspase 3 activity” value in the data set on Caspase 3 (CASP3) is given as “significantly reduce”. Also, the “expression of TGFβ3 over the basal expression in keratinocyte conditioned media (KCM)” value was 1.35 fold in the data set on TGFβ3 (24 h with conditioned media from HEKa treated 48 hours with 0.0025 mg/mL) and 1.60 fold with TGFβ3 (24 h with conditioned media from HEKa treated 48 hours with 0.01 mg/mL).
